For assay [1], the system named is Leishmania donovani axenic amastigote parasites. The assay is described as follows: Leishmania donovani axenic amastigote proliferation assay (Cell TiterGlo luminescence, 2 day incubation). The settings on record: Leishmania donovani, axenic amastigotes, inhibition of proliferation; read-out: L. donovani amastigotes EC50. Type of assay: cell-based.
Assay [2] concerns L. donovani HU3 strain in mouse peritoneal macrophages. The assay can be described thus: Assay for proliferation of Leishmania parasites in infected mouse peritoneal macrophages (SybrGreen staining, high-content imaging, 5 days). Type of assay: cell-based, Leishmania donovani. The settings on record: Leishmania donovani, Peritoneal macrophage, L. donovani in mouse peritoneal macrophages, inhibition of proliferation; read-out: L. donovani Macrophage EC50.

Assay [3] relates to Trypanosoma brucei Lister 427 strain, bloodstream form. The assay can be described thus: Assay for proliferation of kinetoplastid parasite Trypanosoma brucei (Cell Titer Glo, 48 hours). Type of assay: cell-based. The settings on record: Trypanosoma brucei, T. brucei Lister 427 bloodstream form, inhibition of proliferation; read-out: T. brucei EC50. The procedure, abridged:
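Bloodstream-form T. brucei Lister 427 in HMI-9 medium was exposed to compound (DMSO vehicle) for 48 hours at 37° C, 5% CO2. Parasite growth was read as ATP by CellTiter-Glo luminescence, with EC50 calculated from percent inhibition.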

In assay [4] the test system is Trypanosoma cruzi amastigotes (Tulahuen strain expressing Lac-Z) cultured in 3T3 fibroblast cells. The assay can be described thus: microbe, parasite or virus in culture. Type of assay: cell-based. The settings on record: Trypanosoma cruzi, TULAHUEN, Fibroblast, T. cruzi amastigotes in 3T3 fibroblast cells, inhibition of proliferation; read-out: T cruzi EC50.

A value given as a limit tells only on which side of the number the result lay.

Consider `COCC(=O)Nc1ccc(F)c(-c2cn3cc(NC(=O)OC(C)C)cnc3n2)c1` [Compound 106], for which the EC50 was 2740 nM in assay [1], 24800 nM in assay [2], 2200 nM in assay [3] and 3450 nM in assay [4].

For the compound `CC(C)OC(=O)Nc1cnc2nc(-c3cc(NC(=O)c4ccc(S(C)(=O)=O)s4)ccc3F)cn2c1` [Compound 109], the EC50 in assay [1] was > 25000 nM; in assay [2], 28200 nM; in assay [3] it was > 50000 nM; in assay [4] it was > 20000 nM.

As to `CC(C)OC(=O)Nc1cnc2nc(-c3cc(NC(=O)CN4CCCC4)ccc3F)cn2c1` [Compound 110], the EC50 was > 25000 nM in assay [1], 8100 nM in assay [2], 27700 nM in assay [3] and 9590 nM in assay [4].

In the case of `Cc1cc(C(=O)Nc2ccc(F)c(-c3cn4cc(NC(=O)OC(C)C)cnc4n3)c2)on1` [Compound 112], the EC50 turned out to be 2100 nM in assay [1], 16600 nM in assay [2], 1090 nM in assay [3] and 1270 nM in assay [4].

As for `Cc1nc(C)c(C(=O)Nc2ccc(F)c(-c3cn4cc(NC(=O)C5COCCO5)cnc4n3)c2)o1` (stereo not drawn) [Compound 113], the EC50 was 257 nM in assay [1], 502 nM in assay [2], 452 nM in assay [3] and 2990 nM in assay [4].

On to `Cc1nc(C)c(C(=O)Nc2ccc(F)c(-c3cn4cc(NC(=O)C5(C)CCC5)cnc4n3)c2)o1` [Compound 114], for which the EC50 was determined as 143 nM in assay [1], 266 nM in assay [2], 105 nM in assay [3] and 1070 nM in assay [4].

For `Cc1nc(C)c(C(=O)Nc2ccc(F)c(-c3cn4cc(NC(=O)C5(C)CC5)cnc4n3)c2)o1` [Compound 115], the EC50 in assay [1] came out at 73 nM; in assay [2], 93 nM; in assay [3], 54 nM; in assay [4], 410 nM.

On to `CC1=C(C(=O)Nc2cnc3nc(-c4cc(NC(=O)c5oc(C)nc5C)ccc4F)cn3c2)OCCO1` [Compound 116], for which the EC50 worked out at 96 nM in assay [1], 484 nM in assay [2], 153 nM in assay [3] and 3420 nM in assay [4].

For `CCn1ccnc1C(=O)Nc1cnc2nc(-c3cc(NC(=O)c4oc(C)nc4C)ccc3F)cn2c1` [Compound 117], the EC50 in assay [1] is 125 nM; in assay [2], > 50000 nM; in assay [3] it was 166 nM; in assay [4], > 20000 nM.

On to `Cc1nc(C)c(C(=O)Nc2ccc(F)c(-c3cn4cc(NC(=O)C5(C)CC(F)(F)C5)cnc4n3)c2)o1` [Compound 118], for which the EC50 stood at 606 nM in assay [1], 2050 nM in assay [2], 442 nM in assay [3] and 3380 nM in assay [4].

As for `Cc1nc(C)c(C(=O)Nc2ccc(F)c(-c3cn4cc(NC(=O)c5ccccn5)cnc4n3)c2)o1` [Compound 119], the EC50 was determined as 56 nM in assay [1], 289 nM in assay [2], 86 nM in assay [3] and 78 nM in assay [4].

On to `Cc1nc(C)c(C(=O)Nc2ccc(F)c(-c3cn4cc(NC(=O)C5CCOC(C(C)C)C5)cnc4n3)c2)o1` (stereo not drawn) [Compound 120], for which the EC50 in assay [1] amounted to 300 nM; in assay [2], 975 nM; in assay [3], 419 nM; in assay [4], 767 nM.

`O=C(Nc1cnc2nc(-c3cc(NC(=O)N4CCCC4)ccc3F)cn2c1)C1CCCN1` (stereo not drawn) [Compound 121]: the EC50 in assay [1] was 23100 nM; in assay [2], > 50000 nM; in assay [3], 3950 nM; in assay [4], > 20000 nM.

On to `Cc1nc(C)c(C(=O)Nc2cnc3nc(-c4cc(NC(=O)N5CCCC5)ccc4F)cn3c2)o1` [Compound 123], for which the half-maximal effective concentration (EC50) is 423 nM in assay [1], > 50000 nM in assay [2], 414 nM in assay [3] and > 20000 nM in assay [4].

Take `O=C(Nc1cnc2nc(-c3cc(NC(=O)N4CCCC4)ccc3F)cn2c1)c1ccc(F)cn1` [Compound 124]: the EC50 is 49 nM in assay [1], 5640 nM in assay [2], 23 nM in assay [3] and 46 nM in assay [4].

As for `O=C1CCC(C(=O)Nc2cnc3nc(-c4cc(NC(=O)N5CCCC5)ccc4F)cn3c2)N1` (stereo not drawn) [Compound 125], the EC50 in assay [1] is > 21900 nM; in assay [2], > 50000 nM; in assay [3] it was 7940 nM; in assay [4], > 20000 nM.

`O=C(Nc1cnc2nc(-c3cc(NC(=O)N4CCCC4)ccc3F)cn2c1)[C@H]1CCCO1` [Compound 126]: the EC50 in assay [1] was found to be 434 nM; in assay [2], 4050 nM; in assay [3], 126 nM; in assay [4], 4860 nM.

For the compound `CC1(C(=O)Nc2cnc3nc(-c4cc(NC(=O)N5CCCC5)ccc4F)cn3c2)CCCO1` (stereo not drawn) [Compound 127], the EC50 in assay [1] stood at 561 nM; in assay [2], 2120 nM; in assay [3], 74 nM; in assay [4], 1980 nM.

`CCC(O)(C(=O)Nc1cnc2nc(-c3cc(NC(=O)N4CCCC4)ccc3F)cn2c1)C(F)(F)F` (stereo not drawn) [Compound 128]: the EC50 was 1750 nM in assay [1], > 50000 nM in assay [2], 171 nM in assay [3] and > 20000 nM in assay [4].

On to `O=C(Nc1cnc2nc(-c3cc(NC(=O)N4CCCC4)ccc3F)cn2c1)C1CCCCO1` (stereo not drawn) [Compound 129], for which the 50% effective concentration (EC50) came out at 435 nM in assay [1], 1260 nM in assay [2], 123 nM in assay [3] and 1340 nM in assay [4].

Regarding `O=C(Nc1cnc2nc(-c3cc(NC(=O)N4CCCC4)ccc3F)cn2c1)[C@@H]1CNCCO1` [Compound 130], the EC50 stood at 13900 nM in assay [1], 26600 nM in assay [2], 4660 nM in assay [3] and 7120 nM in assay [4].

As for `Cc1ncc(C(=O)Nc2cnc3nc(-c4cc(NC(=O)N5CCCC5)ccc4F)cn3c2)o1` [Compound 132], the EC50 is 2870 nM in assay [1], > 50000 nM in assay [2], 1550 nM in assay [3] and > 13800 nM in assay [4].

`CC1(C(=O)Nc2cnc3nc(-c4cc(NC(=O)N5CCCC5)ccc4F)cn3c2)CC1` [Compound 133]: the EC50 in assay [1] was determined as 97 nM; in assay [2], 607 nM; in assay [3], 19 nM; in assay [4], 1840 nM.

Consider `O=C(Nc1cnc2nc(-c3cc(NC(=O)N4CCCC4)ccc3F)cn2c1)C1CC1` [Compound 134], for which the EC50 turned out to be 267 nM in assay [1], 8360 nM in assay [2], 73 nM in assay [3] and 5200 nM in assay [4].

As to `O=C(Nc1cnc2nc(-c3cc(NC(=O)N4CCCC4)ccc3F)cn2c1)[C@@H]1CCCO1` [Compound 135], the EC50 is 255 nM in assay [1], 3130 nM in assay [2], 106 nM in assay [3] and 3790 nM in assay [4].

Regarding `CC1(C(=O)Nc2cnc3nc(-c4cc(NC(=O)N5CCCC5)ccc4F)cn3c2)CCCCO1` (stereo not drawn) [Compound 136], the EC50 in assay [1] is 392 nM; in assay [2], 1420 nM; in assay [3], 157 nM; in assay [4], > 20000 nM.

Regarding `COCCOCC(=O)Nc1cnc2nc(-c3cc(NC(=O)N4CCCC4)ccc3F)cn2c1` [Compound 137], the 50% effective concentration (EC50) in assay [1] was found to be 2150 nM; in assay [2] it was 24800 nM; in assay [3], 406 nM; in assay [4], 8010 nM.

Consider `CCOCC(=O)Nc1cnc2nc(-c3cc(NC(=O)N4CCCC4)ccc3F)cn2c1` [Compound 138], for which the 50% effective concentration (EC50) in assay [1] was determined as 549 nM; in assay [2] it was 3880 nM; in assay [3], 127 nM; in assay [4], 1950 nM.

On to `COCC(=O)Nc1cnc2nc(-c3cc(NC(=O)N4CCCC4)ccc3F)cn2c1` [Compound 139], for which the EC50 in assay [1] worked out at 450 nM; in assay [2] it was 6820 nM; in assay [3] it was 128 nM; in assay [4], 3740 nM.

Consider `O=C(Nc1ccc(F)c(-c2cn3cc(NC(=O)C4(O)CC4)cnc3n2)c1)N1CCCC1` [Compound 140], for which the EC50 in assay [1] was 1270 nM; in assay [2] it was 8380 nM; in assay [3], 378 nM; in assay [4] it was > 17600 nM.

`O=C1CC(C(=O)Nc2cnc3nc(-c4cc(NC(=O)N5CCCC5)ccc4F)cn3c2)C1` [Compound 141]: the EC50 was 862 nM in assay [1], 8280 nM in assay [2], 1360 nM in assay [3] and > 20000 nM in assay [4].

As for `CCn1ccnc1C(=O)Nc1cnc2nc(-c3cc(NC(=O)N4CCCC4)ccc3F)cn2c1` [Compound 142], the EC50 in assay [1] was 63 nM; in assay [2], 506 nM; in assay [3], 121 nM; in assay [4], 179 nM.

Take `O=C(Nc1cnc2nc(-c3cc(NC(=O)N4CCCC4)ccc3F)cn2c1)C1COCCO1` (stereo not drawn) [Compound 143]: the EC50 in assay [1] is 478 nM; in assay [2] it was 1400 nM; in assay [3], 159 nM; in assay [4], 7910 nM.

Turning to `Cn1ccnc1C(=O)Nc1cnc2nc(-c3cc(NC(=O)N4CCCC4)ccc3F)cn2c1` [Compound 144], the EC50 was 555 nM in assay [1], > 50000 nM in assay [2], 164 nM in assay [3] and > 20000 nM in assay [4].

With `CC1(C(=O)Nc2cnc3nc(-c4cc(NC(=O)N5CCCC5)ccc4F)cn3c2)CCC1` [Compound 145], the EC50 amounted to 223 nM in assay [1], 464 nM in assay [2], 45 nM in assay [3] and 1730 nM in assay [4].

Take `CC1(C(=O)Nc2cnc3nc(-c4cc(NC(=O)N5CCCC5)ccc4F)cn3c2)CC(F)(F)C1` [Compound 146]: the EC50 in assay [1] was 1050 nM; in assay [2] it was 7180 nM; in assay [3], 236 nM; in assay [4], > 20000 nM.
